pIC50: −log10 of the molar value.
Legend:
U87MG tumour cells = experiment: Test of in vitro proliferation of U87MG tumour cells; type: cell-based; settings: Homo sapiens, U-87 MG, 72 h, U87MG cells, 72 hours; read-out: U87 Cell Proliferation IC50
Protocol: Model 4: Test of in vitro Proliferation of U87MG Tumour Cells.
The cell growth is determined with the reagent CellTiter 96 AQueous One Solution Cell Proliferation Assay from Promega (Cat. No. G3581).

Akt-pS473 in U87MG cells = settings: Homo sapiens, U-87 MG, read-out: U87 Akt-pS473 % Inhibition or IC50, nM (IC50), U87MG cells
[1] = target: mTOR (human recombinant aa mTOR 1360-2549) (Homo sapiens (Human), UniProt P42345); experiment: mTOR enzymatic test by TR-FRET (phosphorylation of GFP-4EBP1); type: biochemical
Protocol: Model 1: mTOR Enzymatic Test by TR-FRET (Time-resolved Fluorescence Resonance Energy Transfer).
The test detects the phosphorylation of the substrate GFP-4EBP1 using a terbium-labelled antibody that is specific for the phospho-Thr46 epitope. Binding of the Tb-antibody to the phosphorylated GFP peptide allows the transfer of energy from Tb, excited at 340 nm, to GFP with an increase in the fluorescence emission of the GFP at 520 nm. […] The mixture is incubated for 30 minutes at room temperature. 10 μl of solution are taken up and the reaction is quenched by adding 10 μl of Tb-antibody solution (Invitrogen PV4757)/EDTA (2 nM Tb-Ac and 10 mM EDTA final). After 60 minutes at room temperature, the fluorescence at 490 nm, from the Tb emission, and at 520 nm, from the GFP emission, is measured in a BMG PHERAstar reader equipped with a Lanthascreen™ filter (excitation at 340 nm, emission at 490 and 520 nm). The results are given in the form of the 520/490 ratio.

PI3Kα (p110α/p85α) = PI3Kα (p110α/p85α) (Homo sapiens (Human), UniProt P42336); experiment: PI3Kα enzymatic test by measuring the consumption of ATP; type: biochemical
Protocol: Model 2: PI3Kα Enzymatic Test by Measuring the Consumption of ATP.
The test uses a lucifeurerin/luciferase system to measure the concentration of ATP and its consumption during the enzymatic reaction. The test is performed in 96-well format (Corning/Costar 96 black flat-bottomed half-wells plate, ref. 3694) in a total volume of 30 μl.
To 1 μl of inhibitor in 100% DMSO are added (final concentrations) 50 μM of the substrate PIP2 ((L-α-phosphatidyl-D-myoinositol 4,5-bisphosphate, Echelon 117P-4516-0500), 2 μM of ATP and 1.7 μg/ml of PI3Kα, (p110α/p85α, Invitrogen PV4788) in a buffer of Tris/HCl 50 mM pH 7.5, EGTA 1 mM, MgCl2 10 mM, Chaps 0.03%, 1 mM DTT). After 90 minutes, the reaction is quenched by adding 20 μl/well of KinaseGlo reagent (Promega V6713). After 10 minutes in the dark, the luminescence is read on the PHERAStar microplate reader (reading at 0.8 sec/well).
The IC50 values are determined by the preparation of successive threefold dilutions on at least a scale of 10 000.

Chain of mTOR (human recombinant aa mTOR 1360-2549) (P42345 1360-2549): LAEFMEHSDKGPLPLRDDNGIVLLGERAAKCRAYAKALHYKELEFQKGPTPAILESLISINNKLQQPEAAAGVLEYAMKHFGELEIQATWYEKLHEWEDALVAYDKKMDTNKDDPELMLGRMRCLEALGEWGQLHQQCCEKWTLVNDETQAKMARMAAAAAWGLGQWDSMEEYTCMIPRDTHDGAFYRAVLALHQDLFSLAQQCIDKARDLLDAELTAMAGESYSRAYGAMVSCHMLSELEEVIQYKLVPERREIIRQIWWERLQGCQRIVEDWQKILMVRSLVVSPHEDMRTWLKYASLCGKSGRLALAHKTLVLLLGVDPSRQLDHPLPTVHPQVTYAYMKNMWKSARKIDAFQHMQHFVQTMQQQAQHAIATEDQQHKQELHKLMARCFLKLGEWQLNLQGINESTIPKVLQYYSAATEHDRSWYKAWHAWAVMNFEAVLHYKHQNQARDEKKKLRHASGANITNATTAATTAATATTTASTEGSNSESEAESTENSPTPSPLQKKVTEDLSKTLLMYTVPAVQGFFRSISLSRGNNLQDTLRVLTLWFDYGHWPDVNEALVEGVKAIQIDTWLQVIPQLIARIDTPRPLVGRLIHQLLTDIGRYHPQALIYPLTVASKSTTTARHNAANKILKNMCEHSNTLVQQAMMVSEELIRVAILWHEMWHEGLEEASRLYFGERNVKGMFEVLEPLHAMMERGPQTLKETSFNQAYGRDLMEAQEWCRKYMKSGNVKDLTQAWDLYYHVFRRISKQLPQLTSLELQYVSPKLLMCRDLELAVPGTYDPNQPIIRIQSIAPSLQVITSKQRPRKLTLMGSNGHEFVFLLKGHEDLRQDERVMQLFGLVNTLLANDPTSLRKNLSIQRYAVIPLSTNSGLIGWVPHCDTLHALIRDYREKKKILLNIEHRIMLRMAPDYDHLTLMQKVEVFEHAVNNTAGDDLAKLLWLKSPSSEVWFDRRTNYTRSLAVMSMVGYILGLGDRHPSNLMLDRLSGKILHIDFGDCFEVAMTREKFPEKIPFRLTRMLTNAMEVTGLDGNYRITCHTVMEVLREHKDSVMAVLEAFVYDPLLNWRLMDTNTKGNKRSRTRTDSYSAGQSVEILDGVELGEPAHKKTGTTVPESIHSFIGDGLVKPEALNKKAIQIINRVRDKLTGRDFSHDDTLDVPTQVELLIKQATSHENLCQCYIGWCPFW
Chain of PI3Kα (p110α/p85α) (P42336 whole entry): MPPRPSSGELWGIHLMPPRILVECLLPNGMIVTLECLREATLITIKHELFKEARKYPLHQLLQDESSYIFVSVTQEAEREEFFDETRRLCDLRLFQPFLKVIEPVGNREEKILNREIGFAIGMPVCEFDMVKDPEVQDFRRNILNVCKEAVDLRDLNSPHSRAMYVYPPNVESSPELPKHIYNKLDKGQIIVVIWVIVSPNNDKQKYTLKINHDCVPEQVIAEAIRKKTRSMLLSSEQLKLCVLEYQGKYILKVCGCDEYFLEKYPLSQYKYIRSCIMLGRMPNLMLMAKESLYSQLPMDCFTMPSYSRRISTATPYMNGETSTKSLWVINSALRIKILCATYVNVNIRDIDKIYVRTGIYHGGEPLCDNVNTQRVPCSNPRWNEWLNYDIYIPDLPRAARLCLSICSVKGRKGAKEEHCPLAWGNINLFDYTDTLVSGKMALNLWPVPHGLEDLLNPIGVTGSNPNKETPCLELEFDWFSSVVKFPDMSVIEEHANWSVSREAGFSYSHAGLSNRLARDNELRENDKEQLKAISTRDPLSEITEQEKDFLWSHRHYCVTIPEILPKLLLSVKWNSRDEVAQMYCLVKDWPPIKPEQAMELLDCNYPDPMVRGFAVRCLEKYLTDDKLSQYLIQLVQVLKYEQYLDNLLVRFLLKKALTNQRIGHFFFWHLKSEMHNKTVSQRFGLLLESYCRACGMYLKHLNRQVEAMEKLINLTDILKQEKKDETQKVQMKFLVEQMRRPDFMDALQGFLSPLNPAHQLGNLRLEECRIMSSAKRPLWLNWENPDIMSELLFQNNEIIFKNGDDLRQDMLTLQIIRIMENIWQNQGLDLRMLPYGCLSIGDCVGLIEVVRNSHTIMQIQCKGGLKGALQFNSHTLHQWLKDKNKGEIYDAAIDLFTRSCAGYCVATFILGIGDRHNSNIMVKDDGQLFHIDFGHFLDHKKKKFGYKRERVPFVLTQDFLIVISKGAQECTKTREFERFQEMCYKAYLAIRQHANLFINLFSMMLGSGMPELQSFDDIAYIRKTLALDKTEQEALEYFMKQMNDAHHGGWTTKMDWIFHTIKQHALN
Chain of PI3Kα (p110α/p85α) (P27986 whole entry partner): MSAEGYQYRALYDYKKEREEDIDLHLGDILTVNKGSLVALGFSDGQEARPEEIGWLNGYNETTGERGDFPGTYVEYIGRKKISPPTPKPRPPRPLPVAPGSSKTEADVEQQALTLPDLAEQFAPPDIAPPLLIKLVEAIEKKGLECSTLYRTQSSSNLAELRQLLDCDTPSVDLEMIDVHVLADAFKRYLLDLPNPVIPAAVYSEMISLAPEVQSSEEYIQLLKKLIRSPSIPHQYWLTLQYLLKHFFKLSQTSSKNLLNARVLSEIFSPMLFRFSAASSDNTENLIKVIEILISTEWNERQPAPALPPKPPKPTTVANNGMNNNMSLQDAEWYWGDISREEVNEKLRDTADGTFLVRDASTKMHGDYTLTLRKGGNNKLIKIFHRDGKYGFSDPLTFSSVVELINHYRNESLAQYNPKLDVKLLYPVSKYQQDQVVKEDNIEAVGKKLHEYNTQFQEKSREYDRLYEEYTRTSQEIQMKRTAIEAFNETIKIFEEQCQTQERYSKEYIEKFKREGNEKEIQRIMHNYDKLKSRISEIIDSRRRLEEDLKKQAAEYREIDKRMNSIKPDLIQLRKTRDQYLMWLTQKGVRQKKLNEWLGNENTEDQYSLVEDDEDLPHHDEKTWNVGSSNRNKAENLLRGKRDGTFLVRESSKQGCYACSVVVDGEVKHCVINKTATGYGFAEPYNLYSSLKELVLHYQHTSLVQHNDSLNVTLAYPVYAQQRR

Row | SMILES | pIC50 (U87MG tumour cells) | IC50 (Akt-pS473 in U87MG cells) | pIC50 [1] | PI3Ka IC50 (PI3Kα (p110α/p85α))
1 | CCN1CC(C)(C)Oc2nc(N3CC4CCC(C3)O4)nc(-c3ccc(NC(=O)N[C@@H](C)CO)c(F)c3)c2C1=O [Example 57, 1-{4-[6-Ethyl-8,8-dimethyl-2-(8-oxa-3-azabicyclo[3.2.1]oct-3-yl)-5-oxo-5,6,7,8-tetrahydro-9-oxa-1,3,6-triazabenzocyclohepten-4-yl]-2-fluorophenyl}-3-((S)-2-hydroxy-1-methylethyl)urea] | 5.12 | > 1000 nM | – | –
2 | CCN1CC(C)(C)Oc2nc(N3CC4CCC(C3)O4)nc(-c3ccc(NC(=O)Nc4ccn(C)n4)cc3)c2C1=O [Example 122, 1-{4-[6-Ethyl-8,8-dimethyl-2-(8-oxa-3-azabicyclo[3.2.1]oct-3-yl)-5-oxo-5,6,7,8-tetrahydro-9-oxa-1,3,6-triazabenzocyclohepten-4-yl]phenyl}-3-(1-methyl-1H-pyrazol-3-yl)urea] | 6.47 | 140 nM | – | –
3 | CCN1CC(C)(C)Oc2nc(N3CC4CCC(C3)O4)nc(-c3ccc(NC(=O)Nc4cnccn4)cc3)c2C1=O [Example 125, 1-{4-[6-Ethyl-8,8-dimethyl-2-(8-oxa-3-azabicyclo[3.2.1]oct-3-yl)-5-oxo-5,6,7,8-tetrahydro-9-oxa-1,3,6-triazabenzocyclohepten-4-yl]phenyl}-3-pyrazin-2-ylurea] | 6.59 | 86 nM | – | –
4 | CCN1CC(C)(C)Oc2nc(N3CC4CCC(C3)O4)nc(-c3ccc(NC(=O)NCC4CCCO4)c(F)c3)c2C1=O (stereo not drawn) [Example 128, 1-{4-[6-Ethyl-8,8-dimethyl-2-(8-oxa-3-azabicyclo[3.2.1]oct-3-yl)-5-oxo-5,6,7,8-tetrahydro-9-oxa-1,3,6-triazabenzocyclohepten-4-yl]-2-fluorophenyl}-3-(tetrahydrofuran-2-ylmethyl)urea] | < 5.00 | – | 5.46 | >10000 nM
5 | CCN1CC(C)(C)Oc2nc(N3CC4CCC(C3)O4)nc(-c3ccc(NC(=O)Nc4cccc(OC)n4)c(F)c3)c2C1=O [Example 142, 1-{4-[6-Ethyl-8,8-dimethyl-2-(8-oxa-3-azabicyclo[3.2.1]oct-3-yl)-5-oxo-5,6,7,8-tetrahydro-9-oxa-1,3,6-triazabenzocyclohepten-4-yl]-2-fluorophenyl}-3-(6-methoxypyridin-2-yl)urea] | 5.51 | – | 6.31 | >10000 nM
6 | CCN1CC(C)(C)Oc2nc(N3CC4CCC(C3)O4)nc(-c3ccc(NC(=O)NCc4ccc(OC)nc4)c(F)c3)c2C1=O [Example 145, 1-{4-[6-Ethyl-8,8-dimethyl-2-(8-oxa-3-azabicyclo[3.2.1]oct-3-yl)-5-oxo-5,6,7,8-tetrahydro-9-oxa-1,3,6-triazabenzocyclohepten-4-yl]-2-fluorophenyl}-3-(6-methoxypyridin-3-ylmethyl)urea] | < 5.00 | – | 5.53 | >10000 nM
7 | CCN1CC(C)(C)Oc2nc(N3CC4CCC(C3)O4)nc(-c3ccc(NC(=O)Nc4ccc(OC)nc4)c(C)c3)c2C1=O [Example 175, 1-{4-[6-Ethyl-8,8-dimethyl-2-(8-oxa-3-azabicyclo[3.2.1]oct-3-yl)-5-oxo-5,6,7,8-tetrahydro-9-oxa-1,3,6-triazabenzocyclohepten-4-yl]-2-methylphenyl}-3-(6-methoxypyridin-3-yl)urea] | 5.52 | – | 6.23 | >10000 nM
8 | COCCN1CC(C)(C)Oc2nc(N3CCOC[C@@H]3C)nc(-c3ccc(NC(=O)Nc4cccc(OC(F)F)c4)cc3)c2C1=O [Example 216, 1-(3-Difluoromethoxyphenyl)-3-{4-[6-(2-methoxyethyl)-8,8-dimethyl-2-((S)-3-methylmorpholin-4-yl)-5-oxo-5,6,7,8-tetrahydro-9-oxa-1,3,6-triazabenzocyclohepten-4-yl]phenyl}urea] | 6.29 | – | 6.90 | 1830 nM

— patent US9120812B2, “Pyrimidooxazocine derivatives as mTOR-inhibitors” (SANOFI, priority 2012, dated 2015)
